From US20230002397A1, “SMALL MOLECULE DEGRADERS OF HELIOS AND METODS OF USE” (DANA-FARBER CANCER INSTITUTE, INC., priority 2019, published 2023)
Read-outs that look alike come from different tables or passages of the source.

Target: T1, IKZF2 (Homo sapiens, UniProt Q96SW2+Q9UKS7)
T1 construct: CRISPR/Cas9—mediated insertion of the HiBiT peptide tag (Promega™) to the N-terminus of the IKZF2 gene locus; endogenous in cells; host or cells: MOLT4 cells, with CRISPR/Cas9 knock-in of HiBiT at the endogenous IKZF2 locus
T1 sequence (Q9UKS7 whole entry): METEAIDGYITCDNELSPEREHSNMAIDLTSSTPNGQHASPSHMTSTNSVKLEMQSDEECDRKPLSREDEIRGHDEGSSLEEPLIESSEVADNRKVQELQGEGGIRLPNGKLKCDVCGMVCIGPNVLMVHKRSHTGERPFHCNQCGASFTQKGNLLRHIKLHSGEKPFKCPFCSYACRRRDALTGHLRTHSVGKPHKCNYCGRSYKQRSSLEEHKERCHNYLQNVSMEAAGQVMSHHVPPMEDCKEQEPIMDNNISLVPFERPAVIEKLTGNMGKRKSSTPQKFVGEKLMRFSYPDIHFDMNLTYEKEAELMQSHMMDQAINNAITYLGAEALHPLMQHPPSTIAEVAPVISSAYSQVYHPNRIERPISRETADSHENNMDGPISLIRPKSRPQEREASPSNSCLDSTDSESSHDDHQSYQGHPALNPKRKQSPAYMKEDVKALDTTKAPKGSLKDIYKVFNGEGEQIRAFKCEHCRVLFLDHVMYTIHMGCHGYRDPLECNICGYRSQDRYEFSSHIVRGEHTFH
T1 sequence (Q96SW2 whole entry): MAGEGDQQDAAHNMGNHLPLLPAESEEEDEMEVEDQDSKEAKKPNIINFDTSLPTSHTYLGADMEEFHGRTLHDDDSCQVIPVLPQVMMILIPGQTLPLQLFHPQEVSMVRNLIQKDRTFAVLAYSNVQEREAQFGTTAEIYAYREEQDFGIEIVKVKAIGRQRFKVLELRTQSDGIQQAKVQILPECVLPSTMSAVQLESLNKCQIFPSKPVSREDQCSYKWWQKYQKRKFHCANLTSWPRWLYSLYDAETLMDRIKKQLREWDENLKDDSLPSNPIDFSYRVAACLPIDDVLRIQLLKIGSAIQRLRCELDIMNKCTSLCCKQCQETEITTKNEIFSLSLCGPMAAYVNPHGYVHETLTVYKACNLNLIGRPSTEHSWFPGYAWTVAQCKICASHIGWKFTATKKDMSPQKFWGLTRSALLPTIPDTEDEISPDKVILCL
T1 sequence (Q16531 whole entry partner): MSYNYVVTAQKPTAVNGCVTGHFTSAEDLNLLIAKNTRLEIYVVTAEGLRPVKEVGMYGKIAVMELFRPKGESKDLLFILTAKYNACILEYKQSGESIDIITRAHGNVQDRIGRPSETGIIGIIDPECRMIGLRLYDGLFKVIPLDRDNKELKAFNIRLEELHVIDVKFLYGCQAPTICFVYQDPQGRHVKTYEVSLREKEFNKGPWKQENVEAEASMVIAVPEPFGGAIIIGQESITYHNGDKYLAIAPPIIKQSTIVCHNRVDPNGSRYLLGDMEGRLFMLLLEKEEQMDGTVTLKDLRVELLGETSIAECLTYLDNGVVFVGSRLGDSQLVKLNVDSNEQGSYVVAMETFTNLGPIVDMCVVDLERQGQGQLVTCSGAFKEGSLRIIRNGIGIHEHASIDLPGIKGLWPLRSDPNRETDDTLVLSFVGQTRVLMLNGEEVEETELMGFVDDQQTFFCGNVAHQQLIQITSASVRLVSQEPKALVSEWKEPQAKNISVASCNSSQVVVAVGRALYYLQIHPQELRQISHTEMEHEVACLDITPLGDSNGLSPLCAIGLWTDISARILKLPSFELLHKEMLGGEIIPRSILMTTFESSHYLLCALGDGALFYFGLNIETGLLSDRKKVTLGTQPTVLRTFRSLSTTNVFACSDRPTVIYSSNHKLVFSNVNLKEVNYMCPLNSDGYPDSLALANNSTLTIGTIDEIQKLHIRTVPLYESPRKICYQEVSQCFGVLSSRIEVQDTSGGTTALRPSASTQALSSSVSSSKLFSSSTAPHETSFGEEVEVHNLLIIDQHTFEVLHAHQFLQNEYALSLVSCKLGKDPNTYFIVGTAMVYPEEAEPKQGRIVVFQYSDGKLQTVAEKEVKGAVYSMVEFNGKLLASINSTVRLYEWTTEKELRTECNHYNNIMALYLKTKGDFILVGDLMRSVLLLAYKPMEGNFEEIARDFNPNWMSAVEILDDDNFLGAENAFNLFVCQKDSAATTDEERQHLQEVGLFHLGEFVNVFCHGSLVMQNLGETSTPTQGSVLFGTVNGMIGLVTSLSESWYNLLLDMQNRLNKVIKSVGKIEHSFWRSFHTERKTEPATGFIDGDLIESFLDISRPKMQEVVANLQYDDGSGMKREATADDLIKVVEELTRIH
Assay: HiBit-IKZF2 assay (HiBiT-Helios degradation in MOLT4 cells)
Assay type: cell-based
Conditions: for Dmax: 10 μM to 0.00026 μM; for DC50: concentration at which 50% of HiBiT-Helios degradation was achieved
Method: The HiBiT protein tagging system was applied to MOLT4 cells via a CRISPR/Cas9—mediated insertion of the HiBiT peptide tag (Promega™) to the N-terminus of the IKZF2 gene locus (Neon™ Transfection System). The resulting HiBiT-Helios stable cell line was treated with the following compounds in triplicates following a 13-point concentration scheme ranging from 10 μM to 0.00026 μM. At the indicated timepoints, the Nano-Glo® HiBiT Lytic Detection System (Promega™) was utilized for detecting bioluminescence of the HiBiT tag in treated cells: abundance of the tag is proportionate to the level of luminescence. Following normalization to DMSO, dose-response curves were plotted (GraphPad Prism) to determine the concentration points at which 50% of HiBiT-Helios degradation was achieved by each compound. The extent of degradation (range of luminescence) from the highest to lowest concentration points was calculated to determine the Dmax.

[1] = MOLT-4, extent of degradation from highest to lowest concentration, read-out: Dmax
[2] = extent of degradation from highest to lowest concentration

| Dmax [2] | Structure (SMILES) | Dmax [1] [%] | DC50 [nM] |
| --- | --- | --- | --- |
| – | O=C1CCC(N2Cc3cc(C4(O)CCN(Cc5cccnc5Oc5ccccc5)CC4)ccc3C2=O)C(=O)N1 (stereo not shown) [Compound 195] | 50 to 70 | < 10 |
| – | O=C1CCC(N2Cc3cc(C4(O)CCN(Cc5ccnc(Nc6ccccc6)n5)CC4)ccc3C2=O)C(=O)N1 (stereo not shown) [Compound 196] | > 70 | < 10 |
| – | O=C1CCC(N2Cc3cc(C4(O)CCN(Cc5ccc(F)c(Nc6ccccc6)n5)CC4)ccc3C2=O)C(=O)N1 (stereo not shown) [Compound 197] | 50 to 70 | < 10 |
| – | O=C1CCC(N2Cc3cc(C4(O)CCN(Cc5ccnc(Nc6ccccc6)c5F)CC4)ccc3C2=O)C(=O)N1 (stereo not shown) [Compound 198] | > 70 | < 10 |
| – | O=C1CCC(N2Cc3cc(C4(O)CCN(Cc5ccc6c(c5)C(=O)N(c5ccccc5)C6)CC4)ccc3C2=O)C(=O)N1 (stereo not shown) [Compound 200, 3-(5-(4-hydroxy-1-((3-oxo-2-phenylisoindolin-5-yl)methyl)piperidin-4-yl)-1-oxoisoindolin-2-yl)piperidine-2,6-dione] | > 70 | < 10 |
| – | O=C1CCC(N2Cc3cc(C4(O)CCN(Cc5cccc6c5CCN(c5ccccn5)C6=O)CC4)ccc3C2=O)C(=O)N1 (stereo not shown) [Compound 202] | 50 to 70 | < 10 |
| – | O=C1CCC(N2Cc3cc(C4(O)CCN(Cc5ccc6ccccc6c5)CC4)ccc3C2=O)C(=O)N1 (stereo not shown) [Compound 203] | > 70 | < 10 |
| – | O=C1CCC(N2Cc3cc(C4(O)CCN(Cc5cccc6ccccc56)CC4)ccc3C2=O)C(=O)N1 (stereo not shown) [Compound 204] | > 70 | < 10 |
| – | O=C1CCC(N2Cc3cc(C4(O)CCN(Cc5cc(F)cc(F)c5)CC4)ccc3C2=O)C(=O)N1 (stereo not shown) [Compound 205] | > 70 | < 10 |
| – | O=C1CCC(N2Cc3cc(C4(O)CCN(Cc5ccc(-c6ccccc6)cc5)CC4)ccc3C2=O)C(=O)N1 (stereo not shown) [Compound 206] | > 70 | < 10 |
| – | O=C1CCC(N2Cc3cc(C4(O)CCN(Cc5cccc(Cl)c5)CC4)ccc3C2=O)C(=O)N1 (stereo not shown) [Compound 207] | > 70 | < 10 |
| – | O=C1CCC(N2Cc3cc(C4(O)CCN(Cc5cccc(OC(F)F)c5)CC4)ccc3C2=O)C(=O)N1 (stereo not shown) [Compound 208] | > 70 | < 10 |
| – | N#CC1(COc2ccccc2CN2CCC(O)(c3ccc4c(c3)CN(C3CCC(=O)NC3=O)C4=O)CC2)CC1 (stereo not shown) [Compound 209] | 50 to 70 | 10 to 30 |
| – | O=C1CCC(N2Cc3cc(C4(O)CCN(Cc5ccccc5)C4)ccc3C2=O)C(=O)N1 (stereo not shown) [Compound 210] | 30 to 50 | 30 to 150 |
| – | O=C1CCC(N2Cc3cc(C4CCN(Cc5ccccc5)C(CO)C4)ccc3C2=O)C(=O)N1 (stereo not shown) [Compound 212] | 50 to 70 | 30 to 150 |
| ++ (“++” is from >50% to <70%) | O=C1CCC(N2Cc3cc(C4CCN(Cc5ccc6c(c5F)C(=O)N(c5ccccc5)C6)CC4)ccc3C2=O)C(=O)N1 (stereo not shown) [Compound 213] | – | 10 to 30 |
| – | Cc1ccccc1N1Cc2ccc(CN3CCC(c4ccc5c(c4)CN(C4CCC(=O)NC4=O)C5=O)CC3)cc2C1=O (stereo not shown) [Compound 214] | 50 to 70 | 10 to 30 |
| – | Cc1cccc(N2Cc3ccc(CN4CCC(c5ccc6c(c5)CN(C5CCC(=O)NC5=O)C6=O)CC4)cc3C2=O)c1 (stereo not shown) [Compound 215] | > 70 | 10 to 30 |
| – | Cc1ccc(N2Cc3ccc(CN4CCC(c5ccc6c(c5)CN(C5CCC(=O)NC5=O)C6=O)CC4)cc3C2=O)cc1 (stereo not shown) [Compound 216] | 50 to 70 | < 10 |
| – | O=C1CCC(N2Cc3cc(C4CCN(Cc5ccc6c(c5)C(=O)N(c5cccc(O)c5)C6)CC4)ccc3C2=O)C(=O)N1 (stereo not shown) [Compound 217] | > 70 | < 10 |
| – | O=C1CCC(N2Cc3cc(C4CCN(Cc5ccc6c(c5)C(=O)N(c5ccccc5O)C6)CC4)ccc3C2=O)C(=O)N1 (stereo not shown) [Compound 218] | > 70 | 10 to 30 |
| – | O=C1CCC(N2Cc3cc(C4(O)CCN(Cc5ccc6c(c5)C(=O)N(c5ccccc5O)C6)CC4)ccc3C2=O)C(=O)N1 (stereo not shown) [Compound 219] | > 70 | < 10 |
| – | O=C1CCC(N2Cc3cc(C4(O)CCN(Cc5ccc6c(c5)C(=O)N(c5ccccn5)C6)CC4)ccc3C2=O)C(=O)N1 (stereo not shown) [Compound 220] | > 70 | < 10 |
| – | O=C1CCC(N2Cc3cc(C4CCN(Cc5ccc6c(c5)C(=O)N(c5ncccc5F)C6)CC4)ccc3C2=O)C(=O)N1 (stereo not shown) [Compound 221] | 50 to 70 | < 10 |
| – | O=C1CCC(N2Cc3cc(C4CCN(Cc5ccc6c(c5)C(=O)N(c5cnsc5)C6)CC4)ccc3C2=O)C(=O)N1 (stereo not shown) [Compound 222] | 50 to 70 | < 10 |
| – | O=C1CCC(N2Cc3cc(C4CCN(Cc5ccc6c(c5)C(=O)N(c5ccsn5)C6)CC4)ccc3C2=O)C(=O)N1 (stereo not shown) [Compound 223] | 50 to 70 | 10 to 30 |
| – | O=C1CCC(N2Cc3cc(C4CCN(Cc5ccc6c(c5)C(=O)N(c5ccns5)C6)CC4)ccc3C2=O)C(=O)N1 (stereo not shown) [Compound 224] | > 70 | < 10 |

| Dmax [2] | Structure (SMILES) | Dmax [1] [%] | DC50 [nM] |
| --- | --- | --- | --- |
| – | O=C1CCC(N2Cc3cc(C4(O)CCN(Cc5ccc6c(c5)C(=O)N(c5ccns5)C6)CC4)ccc3C2=O)C(=O)N1 (stereo not shown) [Compound 225] | > 70 | < 10 |
| – | O=C1CCC(N2Cc3cc(C4CCN(Cc5cccc(Nc6ncc(F)cn6)c5)CC4)ccc3C2=O)C(=O)N1 (stereo not shown) [Compound 226] | 30 to 50 | 10 to 30 |
| – | O=C1CCC(N2Cc3cc(C4CCN(Cc5cccc(Nc6ncc(Cl)cn6)c5)CC4)ccc3C2=O)C(=O)N1 (stereo not shown) [Compound 227] | 50 to 70 | < 10 |
| – | Cc1cnc(Nc2cccc(CN3CCC(c4ccc5c(c4)CN(C4CCC(=O)NC4=O)C5=O)CC3)c2)nc1 (stereo not shown) [Compound 228] | 50 to 70 | 10 to 30 |
| – | Cc1ccnc(Nc2cccc(CN3CCC(c4ccc5c(c4)CN(C4CCC(=O)NC4=O)C5=O)CC3)c2)n1 (stereo not shown) [Compound 229] | 50 to 70 | < 10 |
| – | O=C1CCC(N2Cc3cc(C4CCN(Cc5cccc(Nc6ncc(F)cn6)c5F)CC4)ccc3C2=O)C(=O)N1 (stereo not shown) [Compound 230] | 50 to 70 | 30 to 150 |
| – | Cc1ccnc(Nc2cccc(CN3CCC(c4ccc5c(c4)CN(C4CCC(=O)NC4=O)C5=O)CC3)c2F)n1 (stereo not shown) [Compound 231] | 50 to 70 | < 10 |
| – | CN(c1cccc(CN2CCC(c3ccc4c(c3)CN(C3CCC(=O)NC3=O)C4=O)CC2)c1)c1ncccn1 (stereo not shown) [Compound 232] | 50 to 70 | 10 to 30 |
| – | O=C1CCC(N2Cc3cc(C4CCN(Cc5cccc(Nc6ccsn6)c5)CC4)ccc3C2=O)C(=O)N1 (stereo not shown) [Compound 233] | 50 to 70 | 10 to 30 |
| +++ (“+++” is >70%) | O=C1CCC(N2Cc3cc(C4(O)CCN(Cc5ccc6ncn(-c7ccccc7)c(=O)c6c5)CC4)ccc3C2=O)C(=O)N1 (stereo not shown) [Compound 234] | – | < 10 |
| – | O=C1CCC(N2Cc3cc(C4(O)CCN(Cc5ccc6ncn(-c7ccccn7)c(=O)c6c5)CC4)ccc3C2=O)C(=O)N1 (stereo not shown) [Compound 235] | > 70 | < 10 |
| – | O=C1CCC(N2Cc3cc(C4(O)CCN(Cc5ccc6ccc(-c7ccccc7)nc6c5)CC4)ccc3C2=O)C(=O)N1 (stereo not shown) [Compound 236] | > 70 | < 10 |
| – | N#Cc1ccccc1CN1CCC(O)(c2ccc3c(c2)CN(C2CCC(=O)NC2=O)C3=O)CC1 (stereo not shown) [Compound 237] | 50 to 70 | < 10 |
| – | N#Cc1cccc(CN2CCC(O)(c3ccc4c(c3)CN(C3CCC(=O)NC3=O)C4=O)CC2)c1 (stereo not shown) [Compound 238] | > 70 | < 10 |
| – | N#Cc1ccc(CN2CCC(O)(c3ccc4c(c3)CN(C3CCC(=O)NC3=O)C4=O)CC2)cc1 (stereo not shown) [Compound 239] | > 70 | < 10 |
| – | O=C1CCC(N2Cc3cc(C4(O)CCN(Cc5cnc(-c6ccccc6)s5)CC4)ccc3C2=O)C(=O)N1 (stereo not shown) [Compound 240] | > 70 | < 10 |
| – | O=C1CCC(N2Cc3cc(C4(O)CCN(Cc5cccc6scnc56)CC4)ccc3C2=O)C(=O)N1 (stereo not shown) [Compound 241] | > 70 | < 10 |
| – | O=C1CCC(N2Cc3cc(C4(O)CCN(Cc5ccc6ncsc6c5)CC4)ccc3C2=O)C(=O)N1 (stereo not shown) [Compound 242] | > 70 | < 10 |
| – | O=C1CCC(N2Cc3cc(C4(O)CCN(Cc5cccc(F)c5F)CC4)ccc3C2=O)C(=O)N1 (stereo not shown) [Compound 243] | > 70 | < 10 |
| – | O=C1CCC(N2Cc3cc(C4(O)CCN(Cc5ccc(F)c(F)c5)CC4)ccc3C2=O)C(=O)N1 (stereo not shown) [Compound 244] | > 70 | < 10 |
| – | O=C1CCC(N2Cc3cc(C4(O)CCN(Cc5c(F)cccc5F)CC4)ccc3C2=O)C(=O)N1 (stereo not shown) [Compound 245] | 50 to 70 | < 10 |
| – | O=C1CCC(N2Cc3cc(C4(O)CCN(Cc5ccc6c(c5)CCO6)CC4)ccc3C2=O)C(=O)N1 (stereo not shown) [Compound 246] | > 70 | < 10 |
| – | O=C1CCC(N2Cc3cc(C4(O)CCN(Cc5ccc(OC(F)F)cc5)CC4)ccc3C2=O)C(=O)N1 (stereo not shown) [Compound 247] | > 70 | < 10 |
| – | O=C1CCC(N2Cc3cc(C4(O)CCN(Cc5ccccc5OC(F)F)CC4)ccc3C2=O)C(=O)N1 (stereo not shown) [Compound 248] | > 70 | < 10 |
| – | O=C1CCC(N2Cc3cc(C4(O)CCN(Cc5ccccc5C(F)(F)F)CC4)ccc3C2=O)C(=O)N1 (stereo not shown) [Compound 249] | > 70 | < 10 |
| – | O=C1CCC(N2Cc3cc(C4(O)CCN(Cc5cccc(C(F)(F)F)c5)CC4)ccc3C2=O)C(=O)N1 (stereo not shown) [Compound 250] | > 70 | < 10 |
